Results as given in patent US6525001B1, “Substituted pyrimidine and pyridine herbicides” (Mid-American Commercialization Corporation, priority 1997, dated 2003).

Key:
Format in all cases: in vivo
Parameters in all cases: key: 0 is no effect; 10 is complete control
[1] = system: broadleaf signalgrass (Brachiaria decumbens); assay: Test B pre-/postemergence
Procedure, shortened: (§1)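 Compounds in a surfactant-containing, non-phytotoxic solvent blend are applied to freshly planted seed (preemergence) and, concurrently, to seedlings of 2 to 18 cm at 1–4 leaves (postemergence). Plants stay in the greenhouse twelve to sixteen days and are then scored visually from 0 (no effect) to 10 (complete control).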

rape (Brassica napus) = assay: Test B pre-/postemergence
Procedure, shortened: as §1

corn (Zea mays) = assay: Test B pre-/postemergence
Procedure, shortened: as §1

[2] = system: sugar beet (Beta vulgaris); assay: Test B pre-/postemergence
Procedure, shortened: as §1

[3] = system: velvetleaf (Abutilon theophrasti); assay: Test B pre-/postemergence
Procedure, shortened: as §1

[4] = system: pigweed (Amaranthus retroflexus); assay: Test B pre-/postemergence
Procedure, shortened: as §1

[5] = system: momingglory (Ipomoea hederacea); assay: Test B pre-/postemergence
Procedure, shortened: as §1

[6] = system: wheat (Triticum aestivum); assay: Test B pre-/postemergence
Procedure, shortened: as §1

[7] = system: bedstraw (Galium aparine); assay: Test B pre-/postemergence
Procedure, shortened: as §1

[8] = system: cocklebur (Xanthium strumarium); assay: Test B pre-/postemergence
Procedure, shortened: as §1

[9] = system: giant foxtail (Setaria faberii); assay: Test B pre-/postemergence
Procedure, shortened: as §1

[10] = system: bamyardgrass (Echinochloa crus-galli); assay: Test B flood test; details: for Plant response rating, Barnyardgrass: Postemergence (flood test species)
Procedure, shortened: (§2)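 Read-out is a visual response score from 0 (no effect) to 10 (complete control), assigned by comparison with untreated controls. Treatment was applied at the 2-leaf stage, and plants stayed in the greenhouse for twelve to sixteen days before scoring.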

rice (Oryza sativa) = assay: Test B flood test; details: for Plant response rating, Rice: Postemergence (flood test species)
Procedure, shortened: as §2

[11] = system: smallflower flatsedge (Cyperus difformis); assay: Test B flood test; details: for Plant response rating, S. Flatsedge: Postemergence (flood test species)
Procedure, shortened: as §2

[12] = system: duck salad (Heteranthera limosa); assay: Test B flood test; details: for Plant response rating, Ducksalad: Postemergence (flood test species)
Procedure, shortened: as §2

[13] = Preemergence, Rate 62 g/ha, scale of 0 to 10
[14] = Rate 62 g/ha, Postemergence (flood test)
[15] = Rate 125 g/ha, Postemergence section (flood test species)

Cc1cnc(-n2ccc(C(F)(F)C(F)(F)F)n2)nc1C(=O)c1cccc(OC(F)(F)F)c1 [Compound 62]
B. signalgrass plant response rating ([1]; Rate 62 g/ha, Postemergence): 2 | B. signalgrass plant response rating ([1]; Rate 62 g/ha, Preemergence): 4 | B. signalgrass plant response rating ([1]; Rate 125 g/ha, Postemergence): 2 | Plant response rating, B. signalgrass ([1]; Rate 125 g/ha, Preemergence): 4 | Plant response rating, B. signalgrass ([1]; Rate 250 g/ha, Postemergence): 2 | Plant response rating, B. signalgrass ([1]; Rate 250 g/ha, Preemergence): 8 | Plant response rating, B. signalgrass ([1]; Rate 500 g/ha, Postemergence): 3 | Plant response rating, B. signalgrass ([1]; Rate 500 g/ha, Preemergence): 9 | Plant response rating, Rape (rape (Brassica napus); [13]): 0 | Rape plant response rating (rape (Brassica napus); Rate 62 g/ha, Postemergence): 2 | Rape plant response rating (rape (Brassica napus); Rate 125 g/ha, Postemergence): 2 | Plant response rating, Rape (rape (Brassica napus); Rate 125 g/ha, Preemergence): 1 | Plant response rating, Rape (rape (Brassica napus); Rate 250 g/ha, Postemergence): 2 | Plant response rating, Rape (rape (Brassica napus); Rate 250 g/ha, Preemergence): 2 | Plant response rating, Rape (rape (Brassica napus); Rate 500 g/ha, Postemergence): 3 | Plant response rating, Rape (rape (Brassica napus); Rate 500 g/ha, Preemergence): 3 | Plant response rating, Corn (corn (Zea mays); [13]): 0 | Corn plant response rating (corn (Zea mays); Rate 62 g/ha, Postemergence): 1 | Corn plant response rating (corn (Zea mays); Rate 125 g/ha, Postemergence): 2 | Plant response rating, Corn (corn (Zea mays); Rate 125 g/ha, Preemergence): 0 | Plant response rating, Corn (corn (Zea mays); Rate 250 g/ha, Postemergence): 2 | Plant response rating, Corn (corn (Zea mays); Rate 250 g/ha, Preemergence): 1 | Plant response rating, Corn (corn (Zea mays); Rate 500 g/ha, Postemergence): 2 | Plant response rating, Corn (corn (Zea mays); Rate 500 g/ha, Preemergence): 2 | Plant response rating, Sugarbeets [2, 13]: 8 | Sugarbeets plant response rating ([2]; Rate 62 g/ha, Postemergence): 9 | Sugarbeets plant response rating ([2]; Rate 125 g/ha, Postemergence): 9 | Plant response rating, Sugarbeets ([2]; Rate 125 g/ha, Preemergence): 10 | Plant response rating, Sugarbeets ([2]; Rate 250 g/ha, Postemergence): 9 | Plant response rating, Sugarbeets ([2]; Rate 250 g/ha, Preemergence): 10 | Plant response rating, Sugarbeets ([2]; Rate 500 g/ha, Postemergence): 9 | Plant response rating, Sugarbeets ([2]; Rate 500 g/ha, Preemergence): 10 | Plant response rating, Velvetleaf [3, 13]: 1 | Velvetleaf plant response rating ([3]; Rate 62 g/ha, Postemergence): 2 | Velvetleaf plant response rating ([3]; Rate 125 g/ha, Postemergence): 2 | Plant response rating, Velvetleaf ([3]; Rate 125 g/ha, Preemergence): 2 | Plant response rating, Velvetleaf ([3]; Rate 250 g/ha, Postemergence): 2 | Plant response rating, Velvetleaf ([3]; Rate 250 g/ha, Preemergence): 2 | Plant response rating, Velvetleaf ([3]; Rate 500 g/ha, Postemergence): 3 | Plant response rating, Velvetleaf ([3]; Rate 500 g/ha, Preemergence): 7 | Plant response rating, Redroot pigweed [4, 13]: 8 | Redroot pigweed plant response rating ([4]; Rate 62 g/ha, Postemergence): 8 | Redroot pigweed plant response rating ([4]; Rate 125 g/ha, Postemergence): 9 | Plant response rating, Redroot pigweed ([4]; Rate 125 g/ha, Preemergence): 9 | Plant response rating, Redroot pigweed ([4]; Rate 250 g/ha, Postemergence): 9 | Plant response rating, Redroot pigweed ([4]; Rate 250 g/ha, Preemergence): 10 | Plant response rating, Redroot pigweed ([4]; Rate 500 g/ha, Postemergence): 10 | Plant response rating, Redroot pigweed ([4]; Rate 500 g/ha, Preemergence): 10 | Plant response rating, Morningglory [5, 13]: 1 | Morningglory plant response rating ([5]; Rate 62 g/ha, Postemergence): 3 | Morningglory plant response rating ([5]; Rate 125 g/ha, Postemergence): 4 | Plant response rating, Morningglory ([5]; Rate 125 g/ha, Preemergence): 2 | Plant response rating, Morningglory ([5]; Rate 250 g/ha, Postemergence): 9 | Plant response rating, Morningglory ([5]; Rate 250 g/ha, Preemergence): 4 | Plant response rating, Morningglory ([5]; Rate 500 g/ha, Postemergence): 10 | Plant response rating, Morningglory ([5]; Rate 500 g/ha, Preemergence): 7 | Plant response rating, Wheat [6, 13]: 0 | Wheat plant response rating ([6]; Rate 62 g/ha, Postemergence): 1 | Wheat plant response rating ([6]; Rate 125 g/ha, Postemergence): 2 | Plant response rating, Wheat ([6]; Rate 125 g/ha, Preemergence): 0 | Plant response rating, Wheat ([6]; Rate 250 g/ha, Postemergence): 2 | Plant response rating, Wheat ([6]; Rate 250 g/ha, Preemergence): 0 | Plant response rating, Wheat ([6]; Rate 500 g/ha, Postemergence): 3 | Plant response rating, Wheat ([6]; Rate 500 g/ha, Preemergence): 0 | Plant response rating, Bedstraw [7, 13]: 0 | Bedstraw plant response rating ([7]; Rate 62 g/ha, Postemergence): 3 | Bedstraw plant response rating ([7]; Rate 125 g/ha, Postemergence): 3 | Plant response rating, Bedstraw ([7]; Rate 125 g/ha, Preemergence): 1 | Plant response rating, Bedstraw ([7]; Rate 250 g/ha, Postemergence): 3 | Plant response rating, Bedstraw ([7]; Rate 250 g/ha, Preemergence): 2 | Plant response rating, Bedstraw ([7]; Rate 500 g/ha, Postemergence): 4 | Plant response rating, Bedstraw ([7]; Rate 500 g/ha, Preemergence): 6 | Plant response rating, Cocklebur [8, 13]: 0 | Cocklebur plant response rating ([8]; Rate 62 g/ha, Postemergence): 2 | Cocklebur plant response rating ([8]; Rate 125 g/ha, Postemergence): 5 | Plant response rating, Cocklebur ([8]; Rate 125 g/ha, Preemergence): 0 | Plant response rating, Cocklebur ([8]; Rate 250 g/ha, Postemergence): 7 | Plant response rating, Cocklebur ([8]; Rate 500 g/ha, Postemergence): 7 | Plant response rating, Cocklebur ([8]; Rate 500 g/ha, Preemergence): 0 | Plant response rating, Giant foxtail [9, 13]: 1 | Giant foxtail plant response rating ([9]; Rate 62 g/ha, Postemergence): 1 | Giant foxtail plant response rating ([9]; Rate 125 g/ha, Postemergence): 2 | Plant response rating, Giant foxtail ([9]; Rate 125 g/ha, Preemergence): 2 | Plant response rating, Giant foxtail ([9]; Rate 250 g/ha, Postemergence): 2 | Plant response rating, Giant foxtail ([9]; Rate 250 g/ha, Preemergence): 4 | Plant response rating, Giant foxtail ([9]; Rate 500 g/ha, Postemergence): 3 | Plant response rating, Giant foxtail ([9]; Rate 500 g/ha, Preemergence): 4 | Barnyardgrass plant response rating [10, 14]: 1 | Barnyardgrass plant response rating [10, 15]: 2 | Plant response rating, Barnyardgrass ([10]; Rate 250 g/ha): 3 | Plant response rating, Barnyardgrass ([10]; Rate 500 g/ha): 4 | Rice plant response rating (rice (Oryza sativa); [14]): 0 | Rice plant response rating (rice (Oryza sativa); [15]): 0 | Plant response rating, Rice (rice (Oryza sativa); Rate 250 g/ha): 0 | Plant response rating, Rice (rice (Oryza sativa); Rate 500 g/ha): 0 | S. Flatsedge plant response rating [11, 14]: 3 | S. Flatsedge plant response rating [11, 15]: 6 | Plant response rating, S. Flatsedge ([11]; Rate 250 g/ha): 7 | Plant response rating, S. Flatsedge ([11]; Rate 500 g/ha): 8 | Ducksalad plant response rating [12, 14]: 0 | Ducksalad plant response rating [12, 15]: 0 | Plant response rating, Ducksalad ([12]; Rate 250 g/ha): 0 | Plant response rating, Ducksalad ([12]; Rate 500 g/ha): 2
